Assay results published in patent US9814663B2, “Peptide, method and composition for inhibiting melanogenesis” (RENORIGIN INNOVATION INSTITUTE CO., LTD., priority 2016, dated 2017).

Legend:
Type in all cases: cell-based, murine
B16F10 cells = assay: Melanin content assay; conditions: 10 and 50 μg/ml peptide, 5 days, p<0.05 compared to control
Protocol: (§1) B16F10 murine melanoma cells were cultured in phenol red-free DMEM with 10% fetal bovine serum and penicillin/streptomycin (100 IU/50 […]) in a humidified atmosphere containing 5% CO2 in air at 37° C.
Melanin contents of cultured B16F10 cells were measured according to the method (Lee et al., J Invest Dermatol 124, 405-411, 2005) with a slight modification. Briefly, B16F10 cells were seeded in 6-well plate (2×10^4 cells/well) and incubated overnight to allow cells to adhere. After treating with various test samples in an incubator for 5 days, washed, trypsinized and counted before pelleting. Melanin per cell was quantified after boiling in 1 M NaOH for 1 hour and melanin content in each sample was read from a calibration curve against synthetic eumelanin at 400 nm and converted to means±SE melanin pg/cell from 3 independent experiments.

Tyrosinase [1] = assay: DOPA staining; conditions: B16F10 cells, 10 and 50 μg/ml peptide, 4 days
Protocol: as §1
DOPA staining was also performed to measure tyrosinase enzyme activity. B16F10 cells were seeded in 6-well plate (2×10^4 cells/well) and incubated overnight to allow cells to adhere. After treating with various test samples in an incubator for 4 days, cells were washed with PBS, fixation with 2% paraformaldehyde and washing with PBS a further three times, the cells were incubated with 0.1% DOPA (dissolved in 0.1 M PBS) at 37° C. for 5 hour, and observed using light microscopy (Wang et al., Exp Ther Med 6, 967-972, 2013).

B16F10 melanoma cells = assay: Cell pigmentation of treated B16F10 cultures (FIG. 1); conditions: 50 μg/ml peptide, 5 days
Protocol: B16F10 melanoma cells were treated with 10-50 μg/ml peptide of SEQ ID NO: 1 (“Lf H-392-399”) for 5 days with a medium change at day 3. The cells and medium were recovered in test tubes. Kojic acid is used as […] in the cellular study due to known inhibitory effects on tyrosinase activity. IBMX is used as positive control in the cellular study due to known elevator of cellular cAMP level, […].
as §1

Tyrosinase [2] = assay: Tyrosinase assay (cell lysate, L-DOPA); conditions: B16F10 cells, 10 and 50 μg/ml peptide, 5 days; p<0.05 compared to control
Protocol: as §1
Tyrosinase is the rate limiting enzyme in the melanogenic pathway. Its measurement provides a highly specific and sensitive indication of degree of induction of melanogenesis. Tyrosinase enzyme activity of cultured B16F10 cells were measured according to the method of (Bellei et al., J Biol Chem 285, 7288-7299, 2010) with a slight modification. Briefly, B16F10 cells were seeded in 6-well plate (2×10^4 cells/well) and incubated overnight to allow cells to adhere. After treating with various test samples in an incubator for 5 days, cells were washed with PBS and then harvested using trypsin. At the end point, the cells were solubilized with phosphate buffer (pH 6.8) containing 1% Triton X-100. The cells were then disrupted by freezing and thawing, and the lysates were clarified by centrifugation at 10,000×g for 10 min. After protein quantification and adjustment of protein concentrations with lysis buffer, 100 μl of each lysate (each containing the same amount of protein) were aliquoted into the wells of a 96-well plate, and 100 μl of 5 mM L-DOPA were then added to each well. The absorbance was measured spectrophotometrically at 475 nm following a 30-min incubation period at 37° C. […]

Question: Which results are given for “SSASTTED (listed as Homo sapiens) [Lf H-392-399]”?
Answer: melanin synthesis (melanin content in cells and melanin secretion in culture medium) (B16F10 cells): significantly decreased melanin synthesis; DOPA staining (Tyrosinase [1]): weaker DOPA staining; cell pigmentation (B16F10 melanoma cells): reduced cell pigmentation; tyrosinase activity (Tyrosinase [2]): significantly decreased tyrosinase activity
